From patent US9464066B2, “Deuterated compounds useful for treating neurodegenerative diseases” (PharmatrophiX, Inc., priority 2009, dated 2016) come the findings set out here.

The experiment concerns hippocampal neurons. Description: Measurement of activity relative to BDNF: prevention of degeneration of hippocampal neurons. The settings on record: hippocampal neurons from embryological day 16 mice, assessed 48 hours following cell seeding; BDNF maximum defined as 100%; baseline (CM) approximately 40%. It counts as cell-based. The protocol: Compounds of the present application are tested for their ability to prevent the degeneration of hippocampal neurons as described in Massa et al J Neurosci. (2006) 26(20):5288-300. In brief, hippocampal neurons are isolated from embryological day 16 mice and seeded in 96-well tissue culture plates under conditions in which they degenerated in the absence of neurotrophin receptor ligands. Neuronal degeneration is assessed using morphological criteria 48 hours following cell seeding. The neurotrophins brain-derived neurotrophic factor (BDNF) and nerve growth factor (NGF) serve as positive controls. The maximum cell death preventing activity of BDNF is defined as 100% neurotrophic activity. The efficacy of NGF is 80% of that of BDNF. The neurotrophic activity of the test compounds at each applied concentration is quantitated in terms of a percentage of the maximum BDNF-supported survival level. In the presence of culture medium (CM) and the absence of BDNF or compounds, survival is approximately 40% of the BDNF maximum effect and this is regarded as baseline survival. For each compound, dose-response curves are generated and the EC50 and maximum survival percentage are derived.

Take “NGF: neurotrophin nerve growth factor, serves as positive control in the hippocampal neuron survival assay”: the “efficacy (neurotrophic activity as percentage of the maximum BDNF-supported survival)” value was found to be 80%.
